Km data for 1 compound are collected here from paper PMC3064516 (Nature structural & molecular biology, 2011).

In this experiment the target is Autotaxin (ATX, ENPP2) (Homo sapiens, UniProt Q13822). Briefly: nucleotide phosphodiesterase assay, Km. It counts as biochemical.

Take `Cc1cn([C@H]2C[C@H](O)[C@@H](COP(=O)(O)Oc3ccc([N+](=O)[O-])cc3)O2)c(=O)[nH]c1=O` [pNP-TMP, p-nitrophenyl thymidine 5′-monophosphate]: the Km turned out to be 1930 ± 200 µM.

For orientation: Km means the substrate concentration at which the rate is half of its maximum.
